Assays:
[1] = target: T1, BCRP (Homo sapiens, UniProt Q9UNQ0); experiment: BCRP fluorimetric inhibition assay, Hoechst 33342 substrate, recombinant CHO-K1 cells; format: cell-based; details: Hoechst 33342 (5 μm) substrate, 20 min at 37° C., fluorimetry
T1 construct: expressed in transfected cells; host or cells: CHO-K1
T1 sequence (Q9UNQ0 1-655): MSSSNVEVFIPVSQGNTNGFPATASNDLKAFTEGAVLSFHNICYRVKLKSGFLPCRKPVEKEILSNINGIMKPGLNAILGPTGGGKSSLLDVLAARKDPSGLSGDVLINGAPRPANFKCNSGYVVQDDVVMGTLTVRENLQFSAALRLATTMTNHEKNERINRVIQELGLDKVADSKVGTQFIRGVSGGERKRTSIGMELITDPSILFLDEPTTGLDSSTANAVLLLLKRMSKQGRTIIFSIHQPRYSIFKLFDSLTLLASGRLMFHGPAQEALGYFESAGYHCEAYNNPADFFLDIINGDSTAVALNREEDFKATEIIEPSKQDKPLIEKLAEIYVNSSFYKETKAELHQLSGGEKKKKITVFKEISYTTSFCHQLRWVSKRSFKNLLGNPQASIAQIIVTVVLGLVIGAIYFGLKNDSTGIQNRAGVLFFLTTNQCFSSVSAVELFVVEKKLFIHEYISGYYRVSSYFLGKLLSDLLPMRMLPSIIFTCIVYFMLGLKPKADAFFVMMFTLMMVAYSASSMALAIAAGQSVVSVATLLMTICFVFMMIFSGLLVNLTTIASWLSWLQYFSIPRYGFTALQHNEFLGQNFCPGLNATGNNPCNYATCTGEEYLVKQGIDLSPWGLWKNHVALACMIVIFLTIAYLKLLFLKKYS
Description: The IC-50 value of OBR 5-340 and MS 112 were determined according to the method described by Paturi D. K, et al in Int. J. Pharm. (2010), 384: 32-38. The source used for the determination was human recombinant CHO-K1 cells, while Hoechst 33342 (5 μm) was used as the substrate. The cells were incubated for 20 min at 37° C. and the detection was accomplished by fluorimetry.
Fluorimetric Inhibition Assay:
The percent of control is calculated using the following equation.
In this formula, “Compound” is the individual reading in the presence of the test compound. “T1” is the mean reading in the absence of the test compound. Background is the mean reading in the presence of the highest effective concentration of the reference inhibitor.
The percent of inhibition is calculated by subtracting the percent of control from 100. The IC50 value (concentration causing a half-maximal inhibition of the control value) is determined by non-linear regression analysis of the concentration-response curve using the Hill equation.

[2] = tested on: CYP1A; experiment: Cytochrome P450 inhibition (DMPK studies); format: in vitro ADME
[3] = target: T2, CYP2B6 (Homo sapiens, UniProt P20813); experiment: Cytochrome P450 inhibition (DMPK studies); format: in vitro ADME
T2 sequence (P20813 1-491): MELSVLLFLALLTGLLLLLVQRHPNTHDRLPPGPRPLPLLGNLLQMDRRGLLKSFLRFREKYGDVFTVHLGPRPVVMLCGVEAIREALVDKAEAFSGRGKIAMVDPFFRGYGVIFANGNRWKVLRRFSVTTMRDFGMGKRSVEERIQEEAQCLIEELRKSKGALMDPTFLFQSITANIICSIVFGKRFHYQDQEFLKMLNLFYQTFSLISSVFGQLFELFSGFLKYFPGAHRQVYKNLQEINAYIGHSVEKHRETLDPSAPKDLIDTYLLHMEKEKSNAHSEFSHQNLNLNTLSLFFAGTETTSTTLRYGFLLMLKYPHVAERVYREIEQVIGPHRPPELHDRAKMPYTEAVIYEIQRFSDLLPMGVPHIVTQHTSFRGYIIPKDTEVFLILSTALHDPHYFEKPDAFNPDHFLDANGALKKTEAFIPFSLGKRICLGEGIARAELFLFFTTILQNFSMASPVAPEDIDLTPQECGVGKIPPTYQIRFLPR

[4] = tested on: CYP3A; experiment: Cytochrome P450 inhibition (DMPK studies); format: in vitro ADME
From the text: (§1) Also no induction of CYP1A2, CYP2B6, and CYP3A4 could be found.

[5] = target: CYP2C19 (Homo sapiens, UniProt P33261); experiment: Cytochrome P450 inhibition (DMPK studies); format: in vitro ADME
From the text: as §1

[6] = target: CYP2C9 (Homo sapiens, UniProt P11712); experiment: Cytochrome P450 inhibition (DMPK studies); format: in vitro ADME
From the text: as §1

[7] = target: T3, CYP2C8 (Homo sapiens, UniProt P10632); experiment: Cytochrome P450 inhibition (DMPK studies); format: in vitro ADME
T3 sequence (P10632 1-490): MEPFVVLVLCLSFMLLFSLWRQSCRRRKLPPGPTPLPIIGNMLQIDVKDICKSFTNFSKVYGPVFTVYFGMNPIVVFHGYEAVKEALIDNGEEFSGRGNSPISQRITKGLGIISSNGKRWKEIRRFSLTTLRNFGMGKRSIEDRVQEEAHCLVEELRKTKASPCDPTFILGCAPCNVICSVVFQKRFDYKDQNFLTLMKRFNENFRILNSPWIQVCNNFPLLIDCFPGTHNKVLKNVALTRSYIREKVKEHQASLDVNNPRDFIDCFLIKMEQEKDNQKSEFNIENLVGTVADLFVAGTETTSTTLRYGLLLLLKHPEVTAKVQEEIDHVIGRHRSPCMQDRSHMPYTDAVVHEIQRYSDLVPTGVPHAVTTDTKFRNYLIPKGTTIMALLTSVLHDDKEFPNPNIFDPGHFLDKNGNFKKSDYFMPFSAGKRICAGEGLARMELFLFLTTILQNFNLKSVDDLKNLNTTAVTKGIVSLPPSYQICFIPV
From the text: as §1

[8] = target: CYP2D6 (Homo sapiens, UniProt P10635); experiment: Cytochrome P450 inhibition (DMPK studies); format: in vitro ADME
From the text: as §1

[9] = tested on: CYP3A4; experiment: Cytochrome P450 induction (DMPK studies); format: in vitro ADME
From the text: as §1

[10] = tested on: CYP2B6; experiment: Cytochrome P450 induction (DMPK studies); format: in vitro ADME
From the text: as §1

[11] = tested on: CYP1A2; experiment: Cytochrome P450 induction (DMPK studies); format: in vitro ADME
From the text: as §1

Sequence of CYP2D6 (P10635 whole entry): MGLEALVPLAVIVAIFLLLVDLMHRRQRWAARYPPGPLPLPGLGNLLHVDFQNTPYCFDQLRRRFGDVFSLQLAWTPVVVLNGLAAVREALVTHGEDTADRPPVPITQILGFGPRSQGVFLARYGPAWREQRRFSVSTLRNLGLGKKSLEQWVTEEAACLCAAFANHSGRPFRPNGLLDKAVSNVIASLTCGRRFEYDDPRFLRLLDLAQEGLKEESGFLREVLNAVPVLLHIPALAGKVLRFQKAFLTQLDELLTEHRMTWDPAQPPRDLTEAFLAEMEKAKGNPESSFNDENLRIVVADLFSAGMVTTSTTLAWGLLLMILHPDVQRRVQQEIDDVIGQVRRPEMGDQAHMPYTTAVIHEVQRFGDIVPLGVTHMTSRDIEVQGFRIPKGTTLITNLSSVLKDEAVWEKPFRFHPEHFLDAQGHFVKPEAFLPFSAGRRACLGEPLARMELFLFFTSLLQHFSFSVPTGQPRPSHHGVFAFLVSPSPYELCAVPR
Sequence of CYP2C19 (P33261 whole entry): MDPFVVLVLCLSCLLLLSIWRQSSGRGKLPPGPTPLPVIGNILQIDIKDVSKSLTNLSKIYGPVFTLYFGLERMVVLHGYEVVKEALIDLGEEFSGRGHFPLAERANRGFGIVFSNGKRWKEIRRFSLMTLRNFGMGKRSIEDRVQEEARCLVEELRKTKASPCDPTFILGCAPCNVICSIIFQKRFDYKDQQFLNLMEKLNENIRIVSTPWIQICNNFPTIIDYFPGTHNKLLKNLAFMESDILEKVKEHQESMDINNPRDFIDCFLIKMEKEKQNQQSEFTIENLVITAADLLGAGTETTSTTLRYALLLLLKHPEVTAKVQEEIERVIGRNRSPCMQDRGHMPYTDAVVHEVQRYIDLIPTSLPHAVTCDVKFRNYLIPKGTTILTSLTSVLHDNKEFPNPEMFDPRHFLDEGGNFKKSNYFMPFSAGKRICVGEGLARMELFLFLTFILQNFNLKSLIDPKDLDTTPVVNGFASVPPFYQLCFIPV
Sequence of CYP2C9 (P11712 whole entry): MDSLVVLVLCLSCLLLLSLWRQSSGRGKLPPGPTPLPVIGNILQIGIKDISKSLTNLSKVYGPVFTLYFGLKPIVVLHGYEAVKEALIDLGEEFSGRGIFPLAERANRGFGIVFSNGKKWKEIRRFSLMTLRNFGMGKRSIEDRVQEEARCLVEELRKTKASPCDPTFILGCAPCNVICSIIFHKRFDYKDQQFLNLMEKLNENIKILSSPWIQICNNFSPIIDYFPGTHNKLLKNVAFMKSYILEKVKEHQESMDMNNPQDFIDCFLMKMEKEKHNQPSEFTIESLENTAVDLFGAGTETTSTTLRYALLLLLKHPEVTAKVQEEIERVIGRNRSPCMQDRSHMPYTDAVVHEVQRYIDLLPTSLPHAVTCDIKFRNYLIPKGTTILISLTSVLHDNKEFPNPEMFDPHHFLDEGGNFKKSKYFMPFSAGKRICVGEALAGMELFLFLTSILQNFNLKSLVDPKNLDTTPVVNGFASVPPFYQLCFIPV

IC50 [1] [µM] | inhibition of CYP1A [2] | inhibition of CYP2B6 [3] | inhibition of CYP3A [4] | inhibition of CYP2C19 [5] | inhibition of CYP2C9 [6] | inhibition of CYP2C8 [7] | inhibition of CYP2D6 [8] | induction of CYP3A4 [9] | induction of CYP2B6 [10] | induction of CYP1A2 [11] | Structure (SMILES)
~100 |  |  |  |  |  |  |  |  |  |  | Nc1nc(-c2ccc(OC(F)(F)F)cc2)nc2[nH]nc(Nc3ccccc3)c12 [MS-112, 4-amino-3-phenylamino-6-[4-(trifluormethoxy)-phenyl]pyrazolo[3,4-d]pyrimidine]
1.7 | does not inhibit | does not inhibit | does not inhibit | does not inhibit | does not inhibit | does not inhibit | does not inhibit | no induction | no induction | no induction | Nc1nc(-c2ccccc2)nc2[nH]nc(Nc3ccc(C(F)(F)F)cc3)c12 [OBR-5-340, 4-amino-3-(4-trifluormethyl-phenyl)amino-6-phenylpyrazolo[3,4-d]pyrimidine]
